# “Also recorded” adds a separate entry of the source.
# What was measured:
# monocytes in the RA chip = experiment: monocyte migration in the RA chip, live imaging microscopy; assay type: cell-based, human; settings: RA chip primed with TNF-α versus not primed
# Excerpt: Following the established inflammation in the RA chip, work pivoted to whether the RA inflammation can be maintained on-chip for a long period. The RA chip cultured for over 4 days and quantified inflammatory cytokines secretion with IL-6 and GM-CSF as indicator. […] It was previously shown that pre-treatment circulating type I IFN (T1IFN) activity predicts non-response to TNFi (Wampler-Muskardin et al., Front Immunol, 2020). Remarkably, no patient with a ratio >1.3 achieved remission or low disease activity. It is also possible to use single cell gene expression analysis to study blood monocytes in RA patients with high vs. low IFN-β-to-α activity ratio. […] Further on, the behaviors of monocytes in the RA chip are investigated by infusing monocytes into the central sinus of the chip, from which monocytes can distribute into the microvessel network and extravasate out of vessel. […] In addition, the effect of circulating T1IFNs on monocyte activation in the RA chip was studied.
# The biomimetic Synovium-on-a-Chip (FIG. 4A) contains two areas to mimic the outer layer (lining layer) and an inner layer (sublining layer) of the synovium. […]
# To confirm the role of TNF-α in regulating the RA inflammation, monitored first is monocyte dynamics in the RA device which is primed with or without TNF-α. […]
# [1] = test system: RA chip (HUVECs, RA patient derived FLS, RA patient monocyte-derived macrophage); experiment: cytokine secretion profile of the RA chip with versus without TNF-α priming; assay type: cell-based, human
# Excerpt: To study blood and synovial cells from RA patients to understand the biological basis for response/non-response to TNFi, disclosed herein is a microfluidics-based 3D vascularized organ-on-a-chip model of RA. The disclosed microphysiological system integrates key features that replicate in vivo synovial architecture and monitors dynamic interactions between the critical cell types of RA, such as monocyte, monocyte-derived macrophage, and fibroblast-like synoviocytes (FLS), in real time with live-cell imaging. The RA chip is compartmentalized into three functional regions, which are partitioned by regularly spaced trapezoid micropillars that confine cell-embedded hydrogels, by balancing surface tension and capillary forces, to mimic the native in vivo tissue architecture of synovitis. The different tissue regions are a central sinus that is lined with human umbilical vein endothelial cells (HUVECs), a synovial sublining, which contains vessels extending from the central sinus, and a synovial lining region (outer ring) connected with four medium reservoirs for medium supply. HUVECs and RA patient derived FLS, and RA patient monocyte-derived macrophage are infused into different regions sequentially and cultured for 7 days to establish a microvessel network and a layered structure of synovium.
# With this established synovium structure on-chip, first profiled is the cytokine environment of the engineered RA chip at two conditions (with TNF-α priming versus without) to validate the inflammation status of the RA chip.
# Following the established inflammation in the RA chip, work pivoted to whether the RA inflammation can be maintained on-chip for a long period. The RA chip cultured for over 4 days and quantified inflammatory cytokines secretion with IL-6 and GM-CSF as indicator. […] It was previously shown that pre-treatment circulating type I IFN (T1IFN) activity predicts non-response to TNFi (Wampler-Muskardin et al., Front Immunol, 2020). Remarkably, no patient with a ratio >1.3 achieved remission or low disease activity. […]
substance,measurement,setting,value
TNF-α,monocyte migration dynamics (migration velocity and distance),monocytes in the RA chip,promoted monocyte migration dynamics; also recorded: Enhanced migration behaviors
same,secretion of IL-6 and GM-CSF,[1]; RA chip cultured for over 4 days after transient TNF-α treatment,generally decreased
same,"secretion of cytokines (IL-6, GM-CSF, IL-8, MCP-1, MCP-3, MIP-3α)",[1]; RA chip with TNF-α priming versus without,increased secretion
same,inflammatory environment of the RA chip,[1]; primed with TNF-α at an interval of 2-3 days,maintained over 7 days
